Data: patent US11076594B2, “Pyrazolone compound or salt thereof, preparation method therefor, herbicide composition and use thereof” (QINGDAO KINGAGROOT CHEMICAL COMPOUNDS CO., LTD., priority 2015, dated 2021)

Legend:
Format in all cases: in vivo
[1] = system: sagittaria trifolia; assay: weed control effect evaluation in rice field; design: key: Level 10: completely dead; Level 9: above 95% growth control rate; Level 8: above 90% growth control rate; Level 7: above 80% growth control rate; Level 6: above 70% growth control rate; Level 5: above 60% growth control rate; Level 4: above 50% growth control rate; Level 3: above 20% growth control rate; Level 2: 5%-20% growth control rate; Level 1: below 5% growth control rate; details: 125 g/ha ai; rice field pot; 14 days after treatment; resistant to pyrazosulfuron-ethyl
Text: (§1) The activity level standard of harmful plant destruction (i.e. growth control rate) is as follows: Rice field soil was loaded into a 1/1,000,000 ha pot. The seeds of echinochloa, scirpus juncoides, bidens tripartite and sagittaria trifolia were sowed and gently covered with soil, then left to stand still in greenhouse in the state of 0.5-1 cm of water storage. The tuber of sagittaria trifolia was planted in the next day or 2 days later. It was kept at 3-4 cm of water storage thereafter. The weeds were treated by dripping the WP or SC water diluents prepared according to the common preparation method of the compounds of the present invention with pipette homogeneously to achieve specified effective amount when echinochloa, scirpus juncoides and bidens tripartite reached 0.5 leaf stage and sagittaria trifolia reached the time point of primary leaf stage. The fertility condition of echinochloa, scirpus juncoides, bidens tripartite and sagittaria trifolia 14 days after the treatment of the compound of the invention and the fertility condition of rice 21 days after the treatment of the compound of the invention respectively with the naked eye.

[2] = system: scirpus juncoides; assay: weed control effect evaluation in rice field; design: key: Level 10: completely dead; Level 9: above 95% growth control rate; Level 8: above 90% growth control rate; Level 7: above 80% growth control rate; Level 6: above 70% growth control rate; Level 5: above 60% growth control rate; Level 4: above 50% growth control rate; Level 3: above 20% growth control rate; Level 2: 5%-20% growth control rate; Level 1: below 5% growth control rate; details: 125 g/ha ai; rice field pot; 14 days after treatment; resistant to pyrazosulfuron-ethyl
Text: as §1

[3] = system: bidens tripartite; assay: weed control effect evaluation in rice field; design: key: Level 10: completely dead; Level 9: above 95% growth control rate; Level 8: above 90% growth control rate; Level 7: above 80% growth control rate; Level 6: above 70% growth control rate; Level 5: above 60% growth control rate; Level 4: above 50% growth control rate; Level 3: above 20% growth control rate; Level 2: 5%-20% growth control rate; Level 1: below 5% growth control rate; details: 125 g/ha ai; rice field pot; 14 days after treatment; resistant to pyrazosulfuron-ethyl
Text: as §1

[4] = system: echinochloa; assay: weed control effect evaluation in rice field; design: key: Level 10: completely dead; Level 9: above 95% growth control rate; Level 8: above 90% growth control rate; Level 7: above 80% growth control rate; Level 6: above 70% growth control rate; Level 5: above 60% growth control rate; Level 4: above 50% growth control rate; Level 3: above 20% growth control rate; Level 2: 5%-20% growth control rate; Level 1: below 5% growth control rate; details: 125 g/ha ai; rice field pot; 14 days after treatment; resistant to pyrazosulfuron-ethyl
Text: as §1

[5] = system: bidens bipinnata; assay: weed control effect in post-emergence stage (Table 1); design: key: Level 10: completely dead; Level 9: above 95% growth control rate; Level 8: above 90% growth control rate; Level 7: above 80% growth control rate; Level 6: above 70% growth control rate; Level 5: above 60% growth control rate; Level 4: above 50% growth control rate; Level 3: above 20% growth control rate; Level 2: 5%-20% growth control rate; Level 1: below 5% growth control rate; details: post-emergence spray at 4-5 leaf stage, 250 g/ha active ingredient with 450 kg/ha water, rated after 3 weeks in greenhouse
Outline: (§2)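 Weeds and crops grown in soil-filled pots in a greenhouse were sprayed at the 4-5 leaf stage (2-3 weeks after sowing). Compounds were applied in acetone with tween 80, diluted in water. After 3 weeks' culture, growth control was scored as fresh weight control rate.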

[6] = system: foxtail; assay: as above; design: key: Level 10: completely dead; Level 9: above 95% growth control rate; Level 8: above 90% growth control rate; Level 7: above 80% growth control rate; Level 6: above 70% growth control rate; Level 5: above 60% growth control rate; Level 4: above 50% growth control rate; Level 3: above 20% growth control rate; Level 2: 5%-20% growth control rate; Level 1: below 5% growth control rate; details: post-emergence spray at 4-5 leaf stage, 250 g/ha active ingredient with 450 kg/ha water, rated after 3 weeks in greenhouse
Outline: as §2

[7] = system: Indian mallow; assay: as above; design: key: Level 10: completely dead; Level 9: above 95% growth control rate; Level 8: above 90% growth control rate; Level 7: above 80% growth control rate; Level 6: above 70% growth control rate; Level 5: above 60% growth control rate; Level 4: above 50% growth control rate; Level 3: above 20% growth control rate; Level 2: 5%-20% growth control rate; Level 1: below 5% growth control rate; details: post-emergence spray at 4-5 leaf stage, 250 g/ha active ingredient with 450 kg/ha water, rated after 3 weeks in greenhouse
Outline: as §2

[8] = system: crab grass; assay: as above; design: key: Level 10: completely dead; Level 9: above 95% growth control rate; Level 8: above 90% growth control rate; Level 7: above 80% growth control rate; Level 6: above 70% growth control rate; Level 5: above 60% growth control rate; Level 4: above 50% growth control rate; Level 3: above 20% growth control rate; Level 2: 5%-20% growth control rate; Level 1: below 5% growth control rate; details: post-emergence spray at 4-5 leaf stage, 250 g/ha active ingredient with 450 kg/ha water, rated after 3 weeks in greenhouse
Outline: as §2

[9] = system: echinochloa; assay: as above; design: key: Level 10: completely dead; Level 9: above 95% growth control rate; Level 8: above 90% growth control rate; Level 7: above 80% growth control rate; Level 6: above 70% growth control rate; Level 5: above 60% growth control rate; Level 4: above 50% growth control rate; Level 3: above 20% growth control rate; Level 2: 5%-20% growth control rate; Level 1: below 5% growth control rate; details: post-emergence spray at 4-5 leaf stage, 250 g/ha active ingredient with 450 kg/ha water, rated after 3 weeks in greenhouse
Outline: as §2

[10] = system: rorippa indica; assay: as above; design: key: Level 10: completely dead; Level 9: above 95% growth control rate; Level 8: above 90% growth control rate; Level 7: above 80% growth control rate; Level 6: above 70% growth control rate; Level 5: above 60% growth control rate; Level 4: above 50% growth control rate; Level 3: above 20% growth control rate; Level 2: 5%-20% growth control rate; Level 1: below 5% growth control rate; details: post-emergence spray at 4-5 leaf stage, 250 g/ha active ingredient with 450 kg/ha water, rated after 3 weeks in greenhouse
Outline: as §2

[11] = system: rice; assay: post-emergence stage experiment, crop (Table 1); details: post-emergence spray at 4-5 leaf stage, 250 g/ha active ingredient with 450 kg/ha water, rated after 3 weeks in greenhouse
Outline: as §2

[12] = system: rice (japonica rice); assay: transplanted rice safety evaluation; details: 125 g/ha ai; treated 5 days after transplantation; 21 days after treatment
Protocol: The activity level standard of harmful plant destruction (i.e. growth control rate) is as follows: In addition, the rice field soil that loaded into the 1/1,000,000 ha pot was leveled to keep water storage at 3-4 cm depth. The 3 leaf stage rice (japonica rice) was transplanted at 3 cm of transplanting depth the next day. The compound of the present invention was treated by the same way after 5 days of transplantation. The fertility condition of echinochloa, scirpus juncoides, bidens tripartite and sagittaria trifolia 14 days after the treatment of the compound of the invention and the fertility condition of rice 21 days after the treatment of the compound of the invention respectively with the naked eye.

[13] = system: corn; assay: post-emergence stage experiment, crop (Table 1); details: post-emergence spray at 4-5 leaf stage, 250 g/ha active ingredient with 450 kg/ha water, rated after 3 weeks in greenhouse
Outline: as §2

[14] = system: wheat; assay: post-emergence stage experiment, crop (Table 1); details: post-emergence spray at 4-5 leaf stage, 250 g/ha active ingredient with 450 kg/ha water, rated after 3 weeks in greenhouse
Outline: as §2

Question: `CCn1nc(C)c(C(=O)c2ccc(C(F)(F)F)c(-n3cccn3)c2Cl)c1O` [Compound 128] was tested. Which “Sagittaria trifolia weed control effect (activity level)” value [1] did it give?
Answer: The value was 8 (Level 8: above 90% growth control rate).

Question: What about the “Scirpus juncoides weed control effect (activity level)” value [2] of the same molecule?
Answer: Its value is 10.

Question: And the “Bidens tripartite weed control effect (activity level)” value [3]?
Answer: The value was 6 (Level 6: above 70% growth control rate).

Question: What about the “Echinochloa weed control effect (activity level)” value [4] of the same molecule?
Answer: Its value is 10.

Question: And the “weed control effect, Bidens bipinnata (level)” value [5]?
Answer: Its value is 6 (Level 6: above 70% growth control rate).

Question: And the “weed control effect, Green foxtail (level)” value [6]?
Answer: The value was 10.

Question: What about the “weed control effect, Indian mallow (level)” value [7] of the same molecule?
Answer: Its value is 3 (Level 3: above 20% growth control rate).

Question: What about the “weed control effect, Crab grass (level)” value [8] of the same molecule?
Answer: The value was 1 (Level 1: below 5% growth control rate).

Question: What about the “weed control effect, Echinochloa (level)” value [9] of the same molecule?
Answer: The value was 10.

Question: And the “weed control effect, Rorippa indica (level)” value [10]?
Answer: The value was 7 (Level 7: above 80% growth control rate).

Question: What about the “effect on crop, Rice (level)” value [11] of the same molecule?
Answer: Its value is 5 (Level 5: above 60% growth control rate).

Question: And the “Rice (activity level, transplanted rice safety)” value [12]?
Answer: Its value is 1 (Level 1: below 5% growth control rate).

Question: What about the “effect on crop, Corn (level)” value [13] of the same molecule?
Answer: The value was 0.

Question: And the “effect on crop, Wheat (level)” value [14]?
Answer: The value was 0.

Question: What does the source list for `Cn1nc(C2CC2)c(C(=O)c2ccc(C(F)(F)F)c(N3CCCC3=O)c2Cl)c1O` [Compound 025]?
Answer: Sagittaria trifolia weed control effect (activity level) [1]: 10; Scirpus juncoides weed control effect (activity level) [2]: 10; Bidens tripartite weed control effect (activity level) [3]: 8 (Level 8: above 90% growth control rate); Echinochloa weed control effect (activity level) [4]: 9 (Level 9: above 95% growth control rate); weed control effect, Bidens bipinnata (level) [5]: 8 (Level 8: above 90% growth control rate); weed control effect, Green foxtail (level) [6]: 10; weed control effect, Indian mallow (level) [7]: 10; weed control effect, Crab grass (level) [8]: 6 (Level 6: above 70% growth control rate); weed control effect, Echinochloa (level) [9]: 6 (Level 6: above 70% growth control rate); weed control effect, Rorippa indica (level) [10]: 10; effect on crop, Rice (level) [11]: 6 (Level 6: above 70% growth control rate); Rice (activity level, transplanted rice safety) [12]: 0; effect on crop, Corn (level) [13]: 4 (Level 4: above 50% growth control rate); effect on crop, Wheat (level) [14]: 3 (Level 3: above 20% growth control rate)
